Data on 21 compounds can be found in PubChem BioAssay (NCI).

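Five compound concentrations were applied to cells in 96-well plates for 48 hours; endpoints were derived by simple linear interpolation of the resulting dose-response curve. TGI denotes the concentration required for complete inhibition of growth.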

Among the test systems are RXF 393 renal; NCI/ADR-RES ovarian; ACHN renal; EKVX NSCLC; RPMI-8226 leukemia; OVCAR-5 ovarian; HCT-15 colon; MCF7 breast; SNB-19 CNS; OVCAR-3 ovarian.
Holding throughout (assay): NCI-60 cell line screen, 48 h

As to `O=C1O[C@H](c2ccc3c(c2)OCO3)[C@H]2CO[C@@H](c3ccc4c(c3)OCO4)[C@@H]12`, the TGI in the assay on RXF 393 renal, with NCI/ADR-RES ovarian, in the assay with ACHN renal, in the assay with EKVX NSCLC, with RPMI-8226 leukemia and in the assay on OVCAR-5 ovarian was more than 100 µM throughout. Besides, the TGI in the assay with HCT-15 colon, in the assay with MCF7 breast and with SNB-19 CNS was more than 100 µM throughout.

Take `CN1[C@@H]2C[C@@H](OC(=O)[C@H](CO)c3ccccc3)C[C@H]1[C@@H]1O[C@@H]12`: the TGI in the assay with RXF 393 renal, in the assay on NCI/ADR-RES ovarian, in the assay with ACHN renal, in the assay with EKVX NSCLC, in the assay with RPMI-8226 leukemia and with OVCAR-3 ovarian was more than 100 µM each time. Moreover, the TGI in the assay on OVCAR-5 ovarian, with HCT-15 colon and with MCF7 breast was more than 100 µM in each case.

On to `CCOC(=O)NC(Nc1ccc([N+](=O)[O-])cc1)(C(F)(F)F)C(F)(F)F`, for which the TGI was 97.1 µM in the assay on RXF 393 renal; more than 100 µM with NCI/ADR-RES ovarian; more than 100 µM in the assay on ACHN renal; more than 100 µM in the assay on EKVX NSCLC; more than 100 µM in the assay with RPMI-8226 leukemia; more than 100 µM with OVCAR-3 ovarian. The TGI in the assay on OVCAR-5 ovarian, in the assay with HCT-15 colon, with MCF7 breast and in the assay with SNB-19 CNS was more than 100 µM throughout.

Turning to `COc1cccc(/C=N/n2c(C)n[nH]c2=O)c1`, the TGI with RXF 393 renal, in the assay on NCI/ADR-RES ovarian, in the assay with ACHN renal, with EKVX NSCLC, in the assay on RPMI-8226 leukemia and in the assay with OVCAR-3 ovarian was more than 100 µM in each case. Moreover, the TGI in the assay on OVCAR-5 ovarian, in the assay on HCT-15 colon, in the assay on MCF7 breast and with SNB-19 CNS was more than 100 µM each time.

As to `Nc1nc(Cl)cc(NCC2(CO)CCCC2)n1`, the TGI in the assay on RXF 393 renal, in the assay on NCI/ADR-RES ovarian, in the assay on ACHN renal, with EKVX NSCLC, with RPMI-8226 leukemia and in the assay with OVCAR-3 ovarian was more than 100 µM in each case. Besides, the TGI with OVCAR-5 ovarian, in the assay with HCT-15 colon, in the assay on MCF7 breast and in the assay on SNB-19 CNS was more than 100 µM in each case.

Take `C=C1C(=O)C=C[C@]2(C)CC[C@H]3C(=C)C(=O)O[C@@H]3[C@@H]12`: the TGI in the assay with RXF 393 renal was 4.47 µM; in the assay on NCI/ADR-RES ovarian, 7.02 µM; in the assay on ACHN renal, 9.59 µM; in the assay on EKVX NSCLC, 8.7 µM; with RPMI-8226 leukemia, 5.87 µM; in the assay on OVCAR-3 ovarian, 11.1 µM. Also, the TGI was 3 µM in the assay on OVCAR-5 ovarian, 13.8 µM with HCT-15 colon, 13.3 µM in the assay on MCF7 breast and 87.6 µM with SNB-19 CNS.

On to `CC(C)(Cl)C(Br)CCC(=CCCl)CBr` (mixture of isomers), for which the TGI in the assay with RXF 393 renal was found to be 7.57 µM; in the assay with NCI/ADR-RES ovarian, 24.3 µM; in the assay on ACHN renal, 7.85 µM; in the assay with EKVX NSCLC, 36.1 µM; in the assay with RPMI-8226 leukemia, 4.38 µM; in the assay on OVCAR-3 ovarian it was 3.9 µM. For the same compound, the TGI was found to be 21.4 µM in the assay with OVCAR-5 ovarian, 3 µM in the assay with HCT-15 colon, 2.62 µM with MCF7 breast and 6.87 µM in the assay on SNB-19 CNS.

As to `CCC/C(Cl)=N\OC(=O)Nc1ccc(OC(F)(F)F)cc1`, the TGI in the assay with RXF 393 renal was 31.2 µM; in the assay with NCI/ADR-RES ovarian, more than 25.3 µM; with ACHN renal, 4.41 µM; in the assay with EKVX NSCLC, 40.1 µM; in the assay on RPMI-8226 leukemia it was 4.43 µM; in the assay on OVCAR-3 ovarian it was 25.2 µM. The TGI with OVCAR-5 ovarian is 35.9 µM; in the assay on MCF7 breast, 40.3 µM; with SNB-19 CNS, more than 58.7 µM.

As to `Cc1cc(S(=O)(=O)Nc2nc3cc(-c4ccc(Cl)cc4)sc3c(=O)n2N)c(S)cc1Cl`, the TGI is more than 100 µM in the assay with RXF 393 renal; more than 100 µM in the assay on NCI/ADR-RES ovarian; 98.7 µM in the assay on ACHN renal; more than 100 µM in the assay with EKVX NSCLC; more than 100 µM with RPMI-8226 leukemia; more than 100 µM with OVCAR-3 ovarian. Also, the TGI in the assay on OVCAR-5 ovarian, in the assay with HCT-15 colon, with MCF7 breast and in the assay with SNB-19 CNS was more than 100 µM each time.

For the compound `C=C(Cl)C(C)(Cl)CCC(Br)C(C)(C)Cl` (centres undefined), the TGI is 30.3 µM in the assay with RXF 393 renal; 92.1 µM in the assay on NCI/ADR-RES ovarian; 31.8 µM in the assay on ACHN renal; more than 100 µM with EKVX NSCLC; 50.6 µM in the assay with RPMI-8226 leukemia; 32.4 µM in the assay with OVCAR-3 ovarian. The TGI with OVCAR-5 ovarian is 47.7 µM; in the assay with MCF7 breast, 30.8 µM; in the assay with SNB-19 CNS, more than 100 µM.

For `CSc1ncnc2c1ncn2CCC#N`, the TGI in the assay on RXF 393 renal, in the assay with NCI/ADR-RES ovarian, in the assay on ACHN renal, in the assay on EKVX NSCLC, in the assay on RPMI-8226 leukemia and with OVCAR-3 ovarian was more than 100 µM in each case. For the same compound, the TGI in the assay on OVCAR-5 ovarian, in the assay with MCF7 breast and in the assay with SNB-19 CNS was more than 100 µM throughout.

With `On1c(-c2ccccc2)nc2ccccc2c1=S`, the TGI in the assay with RXF 393 renal, with NCI/ADR-RES ovarian, in the assay with ACHN renal, in the assay on EKVX NSCLC, with RPMI-8226 leukemia and in the assay on OVCAR-3 ovarian was more than 100 µM throughout. The TGI with OVCAR-5 ovarian, with HCT-15 colon, with MCF7 breast and with SNB-19 CNS was more than 100 µM each time.

With `Oc1cccc(-c2nc3cc(F)ccc3s2)c1`, the TGI in the assay with RXF 393 renal was more than 100 µM; in the assay with NCI/ADR-RES ovarian, 54.3 µM; in the assay on ACHN renal it was 71.3 µM; in the assay with EKVX NSCLC it was 32.5 µM; with RPMI-8226 leukemia it was 54.3 µM; in the assay on OVCAR-3 ovarian it was 43.4 µM. The TGI was 52.9 µM in the assay with OVCAR-5 ovarian, 56.4 µM with HCT-15 colon, 51.4 µM in the assay with MCF7 breast and 99 µM with SNB-19 CNS.

Turning to `CC(C)(C)C(=O)CC1=Nc2ccccc2SC1(O)CC(=O)C(C)(C)C` (centres undefined), the TGI worked out at 65.8 µM in the assay on RXF 393 renal; 66.8 µM with NCI/ADR-RES ovarian; 70.2 µM with ACHN renal; 59.6 µM in the assay on EKVX NSCLC; 25.7 µM with RPMI-8226 leukemia; 75.3 µM in the assay on OVCAR-3 ovarian. The TGI with OVCAR-5 ovarian is 69 µM; in the assay on HCT-15 colon it was 52.8 µM; in the assay on MCF7 breast, 61.2 µM; in the assay with SNB-19 CNS, more than 100 µM.

On to `COc1ccc2cc(C(C)C(=O)N3CCOC3=O)ccc2c1` (centres undefined), for which the TGI in the assay on RXF 393 renal, in the assay with NCI/ADR-RES ovarian, with ACHN renal, in the assay on EKVX NSCLC, with RPMI-8226 leukemia and with OVCAR-3 ovarian was more than 100 µM throughout. Besides, the TGI in the assay on OVCAR-5 ovarian, in the assay on HCT-15 colon, with MCF7 breast and with SNB-19 CNS was more than 100 µM in each case.

As for `CCC(=O)ONC(=O)Cn1ccc([N+](=O)[O-])n1`, the TGI with RXF 393 renal, in the assay with NCI/ADR-RES ovarian, in the assay on ACHN renal, in the assay on EKVX NSCLC, in the assay with RPMI-8226 leukemia and in the assay on OVCAR-3 ovarian was more than 100 µM in each case. In addition, the TGI in the assay on OVCAR-5 ovarian, in the assay on MCF7 breast and in the assay with SNB-19 CNS was more than 100 µM each time.

On to `CC(=O)NC1c2ccccc2C(C)(C)C12CCC1(CC2)OCCO1` (centres undefined), for which the TGI in the assay on RXF 393 renal, in the assay on NCI/ADR-RES ovarian, in the assay with ACHN renal, in the assay with EKVX NSCLC, in the assay with RPMI-8226 leukemia and with OVCAR-5 ovarian was more than 100 µM throughout. The TGI with HCT-15 colon, in the assay on MCF7 breast and in the assay on SNB-19 CNS was more than 100 µM each time.

As to `COc1ccc(C2COc3cc(O)c(O)cc3C2)cc1` (centres undefined), the TGI in the assay on RXF 393 renal was 20.3 µM; in the assay with NCI/ADR-RES ovarian, 27.1 µM; with EKVX NSCLC it was 49.9 µM; in the assay on RPMI-8226 leukemia, 25.2 µM; with OVCAR-3 ovarian it was 28.1 µM; in the assay on OVCAR-5 ovarian, 264 µM. The TGI came to 99.3 µM in the assay with HCT-15 colon, 176 µM with MCF7 breast and 214 µM with SNB-19 CNS.

In the case of `O=C1NC(=O)C(CC2CCCCCCCCCCC2=O)C(=O)N1` (centres undefined), the TGI in the assay on RXF 393 renal, in the assay on NCI/ADR-RES ovarian, with ACHN renal, in the assay on EKVX NSCLC, with OVCAR-3 ovarian and in the assay with OVCAR-5 ovarian was more than 100 µM throughout. The TGI in the assay with HCT-15 colon, in the assay on MCF7 breast and with SNB-19 CNS was more than 100 µM throughout.

Consider `O=C(O)c1ccc(OCc2nc3cc(C(F)(F)F)ccc3nc2-c2ccccc2)cc1`, for which the TGI was more than 100 µM in the assay with RXF 393 renal; more than 100 µM with NCI/ADR-RES ovarian; 67.6 µM in the assay on ACHN renal; more than 100 µM in the assay with EKVX NSCLC; more than 100 µM with OVCAR-3 ovarian; more than 100 µM with OVCAR-5 ovarian. The TGI with HCT-15 colon, in the assay on MCF7 breast and in the assay on SNB-19 CNS was more than 100 µM in each case.

For the compound `COc1ccc(/C=C2\N=C(SC)NC2=O)cc1`, the TGI in the assay with RXF 393 renal, with NCI/ADR-RES ovarian, in the assay on EKVX NSCLC, in the assay on RPMI-8226 leukemia, in the assay on OVCAR-3 ovarian and in the assay on OVCAR-5 ovarian was more than 100 µM each time. The TGI in the assay with HCT-15 colon, with MCF7 breast and in the assay on SNB-19 CNS was more than 100 µM each time.
